Where two headings read alike, the source gives them in different places.
Assays:
[1] = system: CCL6 cells; test: Cytotoxicity of derivatives on CCL6 cell line (Alamar Blue assay, ID50); type: cell-based
Procedure: The cytotoxicity activity of the derivatives was evaluated on CCL6 cell line. The cells were maintained in RPMI 1640 supplemented with fetal calf serum 10% at 37° C., under a 5% CO2 atmosphere. Cells were plated at 2500 cells per well in 96 well plates. Drugs or derivatives were added 24 hours later. After three days of incubation with drugs or derivatives, 10 μl of Alamar Blue were added to the medium. The Alamar assay was performed as described by Pagé et al. (Pagé, B., et al., Int. J. Oncol., 3, 473-476, 1993), and the ID50 was calculated.

[2] = Chloroform extraction (chloroform-water), mixed one hour, HPLC
[3] = Ratio ID50 of derivative/ID50 of paclitaxel, CCL6 cells, three days of incubation, Alamar Blue

Row | Molecule | relative ID* CCL6 [1, 3] | Organic phase/aqueous phase [2] | relative ID* CCL6 [1]
1 | 2′-[N-(aminohexyl)-amidohexanoic acid]paclitaxel ester [Taxamine 5] | 13 |  | 
2 | CC(=O)OC1C(=O)C2(C)C(O)CC3OCC3(OC(C)=O)C2C(OC(=O)c2ccccc2)C2(O)CC(OC(=O)C(OC(=O)CCCCC(=O)NCCN)C(NC(=O)c3ccccc3)c3ccccc3)C(C)=C1C2(C)C (centres unmarked) [Taxamine 1, 2′-[N-(aminoethyl)-amidohexanoic acid]-paclitaxel ester] | 24 | 151 | 
3 | CC(=O)OC1C(=O)C2(C)C(O)CC3OCC3(OC(C)=O)C2C(OC(=O)c2ccccc2)C2(O)CC(OC(=O)C(OC(=O)CCCCCCCCC(=O)O)C(NC(=O)c3ccccc3)c3ccccc3)C(C)=C1C2(C)C (centres unmarked) [Product 5, 2′-(decanedioic acid)-paclitaxel monoester] |  |  | 20
4 | CC(=O)O[C@H]1C(=O)[C@@]2(C)[C@H]([C@H](OC(=O)c3ccccc3)[C@]3(O)C[C@H](OC(=O)[C@H](O)[C@@H](NC(=O)c4ccccc4)c4ccccc4)C(C)=C1C3(C)C)[C@]1(OC(C)=O)CO[C@@H]1C[C@@H]2O [paclitaxel, reference compound] | 1 |  | 
